Assay results reported in ChEMBL document CHEMBL5365515, “PARP7 Inhibition: A Promising Pathway to Advancements in Cancer Therapy” (ACS Med Chem Lett, 2023).
pEC50: −log10 of the molar value.

molecular target: T1, Protein mono-ADP-ribosyltransferase TIPARP (Homo sapiens, UniProt Q7Z3E1); experiment: Inhibition of PARP7 in human NCI-H1373 cells assessed as increase in STAT1 phosphorylation at Tyr701 residue incubated for 48 hrs by LANCE Ultra TR-FRET assay; format: cell-based
T1 sequence (Q7Z3E1 whole entry): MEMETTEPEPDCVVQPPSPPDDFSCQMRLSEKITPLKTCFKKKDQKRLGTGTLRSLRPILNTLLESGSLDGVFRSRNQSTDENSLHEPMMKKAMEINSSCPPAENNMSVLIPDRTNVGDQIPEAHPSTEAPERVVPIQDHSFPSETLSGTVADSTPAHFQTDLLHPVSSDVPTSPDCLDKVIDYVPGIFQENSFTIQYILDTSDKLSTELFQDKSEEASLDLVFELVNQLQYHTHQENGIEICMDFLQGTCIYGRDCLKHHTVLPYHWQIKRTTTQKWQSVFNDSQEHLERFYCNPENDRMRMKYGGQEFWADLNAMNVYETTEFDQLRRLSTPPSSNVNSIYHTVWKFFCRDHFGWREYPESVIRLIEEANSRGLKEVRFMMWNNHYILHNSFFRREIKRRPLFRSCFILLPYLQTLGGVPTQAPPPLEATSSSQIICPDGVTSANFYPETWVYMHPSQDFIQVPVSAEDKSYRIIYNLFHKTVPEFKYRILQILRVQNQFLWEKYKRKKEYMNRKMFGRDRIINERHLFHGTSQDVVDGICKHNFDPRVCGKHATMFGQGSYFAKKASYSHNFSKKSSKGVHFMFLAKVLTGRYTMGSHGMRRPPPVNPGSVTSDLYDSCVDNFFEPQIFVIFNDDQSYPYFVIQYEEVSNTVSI

SMILES	pEC50
O=C(CC[C@@H]1CCCCN1c1cc(C(F)(F)F)c(=O)[nH]n1)N1CCN(c2ncc(C(F)(F)F)cn2)CC1	6.76
CN(CCCC(=O)N1CCN(c2ncc(C(F)(F)F)cn2)CC1)c1cc(C(F)(F)F)c(=O)[nH]n1	7.12
O=C(CCCN(c1ccccc1)c1cc(C(F)(F)F)c(=O)[nH]n1)N1CCN(c2ncc(C(F)(F)F)cn2)CC1	7.13
O=C(CCC1Cc2ccccc2N1c1cc(C(F)(F)F)c(=O)[nH]n1)N1CCN(c2ncc(C(F)(F)F)cn2)CC1 (centres undefined)	6.75
O=C(CCCNc1cc(C(F)(F)F)c(=O)[nH]n1)N1CCN(c2ncc(C(F)(F)F)cn2)CC1	7.14

The next compounds have a higher pEC50 than those just listed; values first:

pEC50	SMILES
7.67	O=C([C@@H](O)CCNc1cc(C(F)(F)F)c(=O)[nH]n1)N1CCN(c2ncc(C(F)(F)F)cn2)CC1
7.22	O=C(CCCCc1cc(C(F)(F)F)c(=O)[nH]n1)N1CCN(c2ncc(C(F)(F)F)cn2)CC1
7.29	CCN(CCCC(=O)N1CCN(c2ncc(C(F)(F)F)cn2)CC1)c1cc(C(F)(F)F)c(=O)[nH]n1
8.03	O=C(CC[C@@H]1CCCN1c1cc(C(F)(F)F)c(=O)[nH]n1)N1CCN(c2ncc(C(F)(F)F)cn2)CC1
